For orientation: IC50 means the midpoint of a concentration-inhibition curve.

Where only a bound is given, the exact number is not on record here.

For one assay, the target named is T1, human Flt-3 (Homo sapiens, UniProt P36888).
T1 construct: expressing the amino acid region amino acids 563-993 of the cytoplasmic kinase domain of human Flt-3; made in house; host or cells: Sf9 (baculovirus)
T1 sequence (P36888 563-993): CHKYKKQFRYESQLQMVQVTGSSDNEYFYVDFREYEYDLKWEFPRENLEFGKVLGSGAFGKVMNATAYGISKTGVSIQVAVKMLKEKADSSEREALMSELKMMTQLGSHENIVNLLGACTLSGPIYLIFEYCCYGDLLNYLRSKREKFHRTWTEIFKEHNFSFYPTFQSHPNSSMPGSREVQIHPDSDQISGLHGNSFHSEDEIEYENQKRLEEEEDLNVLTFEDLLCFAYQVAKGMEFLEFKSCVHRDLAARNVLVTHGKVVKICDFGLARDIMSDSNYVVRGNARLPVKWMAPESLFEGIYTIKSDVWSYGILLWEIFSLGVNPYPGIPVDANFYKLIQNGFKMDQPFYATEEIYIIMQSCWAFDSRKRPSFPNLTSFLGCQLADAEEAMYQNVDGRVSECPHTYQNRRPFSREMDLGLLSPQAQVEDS
Briefly: Flt3 kinase inhibition, GST-Flt-3, 33P incorporation into poly(Glu,Tyr). Format: biochemical. The conditions noted are these: Table 5; read-out: Flt-3, IC50 class. On the procedure:
The compounds to be tested are then diluted in culture medium (without FCS, with 0.1% bovine serum albumin) and added to the cells. (Controls comprise medium without test compounds). After two hours' incubation at 37° C., recombinant VEGF is added; the final VEGF concentration is 20 ng/ml). After a further five minutes incubation at 37° C., the cells are washed twice with ice-cold PBS (phosphate-buffered saline) and immediately lysed in 100 μl lysis buffer per well. The lysates are then centrifuged to remove the cell nuclei, and the protein concentrations of the supernatants are determined using a commercial protein assay (BIORAD). The lysates can then either be immediately used or, if necessary, stored at −20° C. A sandwich ELISA is carried out to measure the VEGF-R2 phosphorylation: a monoclonal antibody to VEGF-R2 (for example Mab 1495.12.14; ProQinase, Freiburg, Germany) is immobilized on black ELISA plates (OptiPlate™ HTRF-96 from Packard). The plates are then washed and the remaining free protein-binding sites are saturated with 3% TopBlock® (Juro, Cat. # TB232010) in phosphate buffered saline with Tween 20® (polyoxyethylen(20)-sorbitane monolaurate, ICI/Uniquema) (PBST). The cell lysates (20 μg protein per well) are then incubated in these plates overnight at 4° C. together with an antiphosphotyrosine antibody coupled with alkaline phosphatase (PY20:AP from Zymed). […] The luminescence is measured in a Packard Top Count Microplate Scintillation Counter. The difference between the signal of the positive control (stimulated with VEGF) and that of the negative control (not stimulated with VEGF) corresponds to VEGF-induced VEGF-R2 phosphorylation (=100%). The activity of the tested substances is calculated as percent inhibition of VEGF-induced VEGF-R2 phosphorylation, wherein the concentration of substance that induces half the maximum inhibition is defined as the IC50 (inhibitory dose for 50% inhibition). […] Flt3 kinase inhibition is determined as follows: The baculovirus donor vector pFbacG01 (GIBCO) is used to generate a recombinant baculovirus expressing the amino acid region amino acids 563-993 of the cytoplasmic kinase domain of human Flt-3. The coding sequence for the cytoplasmic domain of Flt-3 is amplified by PCR from human c-DNA libraries (Clontech). The amplified DNA fragments and the pFbacG01 vector are made compatible for ligation by digestion with BamH1 and HindIII. Ligation of these DNA fragments results in the baculovirus donor plasmid Flt-3(1.1). The production of the viruses, the expression of proteins in Sf9 cells and the purification of the GST-fused proteins are performed as follows: Production of virus: Transfer vector (pFbacG01-Flt-3) containing the Flt-3 kinase domain is transfected into the DH10Bac cell line (GIBCO) and the transfected cells are plated on selective agar plates. Colonies without insertion of the fusion sequence into the viral genome (carried by the bacteria) are blue. Single white colonies are picked and viral DNA (bacmid) is isolated from the bacteria by standard plasmid purification procedures. Sf9 or Sf21 cells (American Type Culture Collection) are then transfected in flasks with the viral DNA using Cellfectin reagent. Determination of small scale protein expression in Sf9 cells: Virus containing media is collected from the transfected cell culture and used for infection to increase its titre. Virus containing media obtained after two rounds of infection is used for large-scale protein expression. For large-scale protein expression 100 cm^2 round tissue culture plates are seeded with 5×10^7 cells/plate and infected with 1 mL of virus-containing media (approx. 5 MOIs). After 3 days the cells are scraped off the plate and centrifuged at 500 rpm for 5 min. Cell pellets from 10-20, 100 cm^2 plates, are resuspended in 50 mL of ice-cold lysis buffer (25 mMTris-HCl, pH 7.5, 2 mM EDTA, 1% NP-40, 1 mM DTT, 1 mM PMSF). The cells are stirred on ice for 15 min and then centrifuged at 5000 rpms for 20 min. […]

A further assay deals with HER-1 (Homo sapiens, UniProt P00533). Briefly: HER-1 kinase inhibition. The class given is biochemical. The conditions noted are these: Table 5; read-out: HER-1, IC50 class.
Sequence of HER-1 (P00533 25-1210, species assumed): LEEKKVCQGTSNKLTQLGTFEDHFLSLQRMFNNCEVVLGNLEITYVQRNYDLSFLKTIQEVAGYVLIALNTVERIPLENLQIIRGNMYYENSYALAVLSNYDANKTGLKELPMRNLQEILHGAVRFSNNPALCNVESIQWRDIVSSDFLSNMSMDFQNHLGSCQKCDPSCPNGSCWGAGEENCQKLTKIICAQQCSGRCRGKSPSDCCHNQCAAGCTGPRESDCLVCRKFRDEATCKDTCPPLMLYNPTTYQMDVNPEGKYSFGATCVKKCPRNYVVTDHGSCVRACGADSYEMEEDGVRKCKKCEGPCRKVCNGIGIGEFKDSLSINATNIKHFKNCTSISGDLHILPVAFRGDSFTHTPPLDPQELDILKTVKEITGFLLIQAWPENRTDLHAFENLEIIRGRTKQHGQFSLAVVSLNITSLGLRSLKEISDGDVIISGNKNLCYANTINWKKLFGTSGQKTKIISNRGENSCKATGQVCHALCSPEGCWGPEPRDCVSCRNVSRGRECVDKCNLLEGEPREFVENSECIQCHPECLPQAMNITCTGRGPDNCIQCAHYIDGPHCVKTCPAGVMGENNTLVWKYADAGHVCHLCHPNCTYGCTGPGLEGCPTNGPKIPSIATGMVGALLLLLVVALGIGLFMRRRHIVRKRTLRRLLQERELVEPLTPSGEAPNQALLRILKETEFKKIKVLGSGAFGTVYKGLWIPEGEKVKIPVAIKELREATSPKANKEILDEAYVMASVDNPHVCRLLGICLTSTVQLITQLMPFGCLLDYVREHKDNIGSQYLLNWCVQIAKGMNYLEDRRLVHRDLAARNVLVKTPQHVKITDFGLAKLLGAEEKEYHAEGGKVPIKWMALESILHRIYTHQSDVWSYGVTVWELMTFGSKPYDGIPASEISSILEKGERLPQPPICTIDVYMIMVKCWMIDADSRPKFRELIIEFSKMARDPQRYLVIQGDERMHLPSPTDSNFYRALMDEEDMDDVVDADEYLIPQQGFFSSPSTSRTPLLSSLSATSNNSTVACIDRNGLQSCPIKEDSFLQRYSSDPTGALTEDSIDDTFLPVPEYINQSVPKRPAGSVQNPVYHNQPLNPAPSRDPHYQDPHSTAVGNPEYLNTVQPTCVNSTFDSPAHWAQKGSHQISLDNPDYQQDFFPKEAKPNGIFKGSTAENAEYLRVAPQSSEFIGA

In the case of `Cc1nc2c(-c3ccc(N4CCN(C)CC4)cc3)cnn2c(N)c1-c1cccc(Cl)c1` [Example 73, 6-(3-Chloro-phenyl)-5-methyl-3-[4-(4-methyl-piperazin-1-yl)-phenyl]-pyrazolo[1,5-a]pyrimidin-7-ylamine], the half-inhibitory concentration (IC50) was more than 10 µM on human Flt-3 and 1 to 10 µM on HER-1.

Regarding `COc1cc(N2CCN(C)CC2)ccc1-c1cnn2c(N)c(-c3cccc(O)c3)cnc12` [Example 76, 3-{7-Amino-3-[2-methoxy-4-(4-methyl-piperazin-1-yl)-phenyl]-pyrazolo[1,5-a]pyrimidin-6-yl}-phenol], the half-inhibitory concentration (IC50) on human Flt-3 and at HER-1 was less than 1 µM each time.

As for `Cc1nc2c(-c3cccc(N4CCOCC4)c3)cnn2c(N)c1-c1cccc(Cl)c1` [Example 87, 6-(3-Chloro-phenyl)-5-methyl-3-(3-morpholin-4-yl-phenyl)-pyrazolo[1,5-a]pyrimidin-7-ylamine], the half-maximal inhibitory concentration (IC50) at human Flt-3 and at HER-1 was more than 10 µM in each case.

For `COc1ccc(-c2cnn3c(N)c(-c4cccc(Cl)c4)c(C)nc23)cc1OC` [Example 93, 6-(3-Chloro-phenyl)-3-(3,4-dimethoxy-phenyl)-5-methyl-pyrazolo[1,5-a]pyrimidin-7-ylamine], the IC50 on human Flt-3 and at HER-1 was more than 10 µM each time.

As for `COc1ccc(-c2cnn3c(N)c(-c4ccc(F)c(Cl)c4)c(C)nc23)cc1` [Example 95, 6-(3-Chloro-4-fluoro-phenyl)-3-(4-methoxy-phenyl)-5-methyl-pyrazolo[1,5-a]pyrimidin-7-ylamine], the IC50 at human Flt-3 and on HER-1 was more than 10 µM each time.

With `Cc1nc2c(-c3cccc(N4CCN(C)CC4)c3)cnn2c(N)c1-c1ccc(F)c(F)c1` [Example 98, 6-(3,4-Difluoro-phenyl)-5-methyl-3-[3-(4-methyl-piperazin-1-yl)-phenyl]-pyrazolo[1,5-a]pyrimidin-7-ylamine], the IC50 at human Flt-3 and on HER-1 was more than 10 µM in each case.

On to `Cc1nc2c(-c3cccc(N4CCN(C)CC4)c3)cnn2c(N)c1-c1cccc(Br)c1` [Example 84, 6-(3-Bromo-phenyl)-5-methyl-3-[3-(4-methyl-piperazin-1-yl)-phenyl]-pyrazolo[1,5-a]pyrimidin-7-ylamine], for which the IC50 on human Flt-3 and on HER-1 was more than 10 µM throughout.

Regarding `Cc1nc2c(-c3cccc(N4CCN(C)CC4)c3)cnn2c(N)c1-c1ccc(F)cc1` [Example 80, 6-(4-Fluoro-phenyl)-5-methyl-3-[3-(4-methyl-piperazin-1-yl)-phenyl]-pyrazolo[1,5-a]pyrimidin-7-ylamine], the 50% inhibitory concentration (IC50) was 1 to 10 µM at human Flt-3 and more than 10 µM on HER-1.

As to `Cc1nc2c(-c3cccc(N4CCN(CCO)CC4)c3)cnn2c(N)c1-c1ccc(F)c(F)c1` [Example 101, 2-(4-{3-[7-Amino-6-(3,4-difluoro-phenyl)-5-methyl-pyrazolo[1,5-a]pyrimidin-3-yl]-phenyl}-piperazin-1-yl)-ethanol], the 50% inhibitory concentration (IC50) at human Flt-3 and at HER-1 was more than 10 µM each time.

In the case of `COc1ccc(-c2cnn3c(N)c(-c4ccc(F)c(Cl)c4)c(C)nc23)cc1OC` [Example 94, 6-(3-Chloro-4-fluoro-phenyl)-3-(3,4-dimethoxy-phenyl)-5-methyl-pyrazolo[1,5-a]pyrimidin-7-ylamine], the IC50 on human Flt-3 and at HER-1 was more than 10 µM throughout.

As to `CN1CCN(c2cccc(-c3cnn4c(N)c(-c5cccc(Br)c5)cnc34)c2)CC1` [Example 86, 6-(3-Bromo-phenyl)-3-[3-(4-methyl-piperazin-1-yl)-phenyl]-pyrazolo[1,5-a]pyrimidin-7-ylamine], the IC50 on human Flt-3 and at HER-1 was more than 10 µM throughout.

With `Cc1nc2c(-c3cccc(N4CCN(C)CC4)c3)cnn2c(N)c1-c1cccc(Cl)c1` [Example 72, 6-(3-Chloro-phenyl)-5-methyl-3-[3-(4-methyl-piperazin-1-yl)-phenyl]-pyrazolo[1,5-a]pyrimidin-7-ylamine], the results for the IC50 at human Flt-3 and on HER-1 were more than 10 µM and 1 to 10 µM, respectively.

For `Cc1nc2c(-c3cccc(N4CCC(N5CCCC5)CC4)c3)cnn2c(N)c1-c1ccc(F)cc1` [Example 103, 6-(4-Fluoro-phenyl)-5-methyl-3-[3-(4-pyrrolidin-1-yl-piperidin-1-yl)-phenyl]-pyrazolo[1,5-a]pyrimidin-7-ylamine], the IC50 at human Flt-3 and on HER-1 was more than 10 µM throughout.
